Where a SMILES comes first, the peptide text is derived from it. Bridges are numbered along the chain shown (N, C = ends). [ ]: non-standard residue; d: D form. The star is where a group is joined. hPhe(3-Cl-4-CF3) = N[C@@H](CCc1ccc(C(F)(F)F)c(Cl)c1)C(=O)O; NPrPhe(4-CF3) = CCCN[C@@H](Cc1ccc(C(F)(F)F)cc1)C(=O)O; Morpholine(3S-CO) = O=C(O)[C@@H]1COCCN1; NMeGly(cPent) = CN[C@H](C(=O)O)C1CCCC1; NMeD = CN[C@@H](CC(=O)O)C(=O)O; NMeL = CN[C@@H](CC(C)C)C(=O)O; Morpholide = C1CN(*)CCO1; Ac5c = NC1(C(=O)O)CCCC1; Aze = O=C(O)[C@@H]1CCN1; Sar = CNCC(=O)O
Key:
[1] = biological target: GDP-bound NRAS wild-type protein (Homo sapiens, UniProt P01111); experiment: Binding to NRAS by surface plasmon resonance (SPR), KD and KD ratio to KRAS
Sequence of GDP-bound NRAS wild-type protein (P01111 whole entry): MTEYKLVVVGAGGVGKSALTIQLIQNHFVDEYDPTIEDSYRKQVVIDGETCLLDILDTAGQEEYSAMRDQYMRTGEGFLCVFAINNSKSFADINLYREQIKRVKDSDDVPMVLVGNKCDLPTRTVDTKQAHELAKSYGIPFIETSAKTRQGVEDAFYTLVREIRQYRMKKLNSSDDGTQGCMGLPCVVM
How it was run: (§1)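 GDP-bound biotin-Avi RAS captured at ~100–300 RU, 30°C, pH 7.4 HBS containing 10 µM GDP, 10 mM MgCl2, 1 mM DTT, 0.01% Tween 20 and 4% DMSO. KD by 1:1 fitting.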

[2] = biological target: HRAS wild-type protein (Homo sapiens, UniProt P01112); experiment: Binding to HRAS by surface plasmon resonance (SPR), KD and KD ratio to KRAS
Sequence of HRAS wild-type protein (P01112 whole entry): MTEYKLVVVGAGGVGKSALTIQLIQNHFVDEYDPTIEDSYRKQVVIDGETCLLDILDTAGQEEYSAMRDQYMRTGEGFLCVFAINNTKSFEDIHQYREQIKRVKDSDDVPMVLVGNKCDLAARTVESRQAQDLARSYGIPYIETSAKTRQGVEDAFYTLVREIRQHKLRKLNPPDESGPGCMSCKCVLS
How it was run: as §1

[3] = biological target: GDP-bound KRAS wild-type protein (Homo sapiens, UniProt P01116); experiment: Binding to KRAS by surface plasmon resonance (SPR), dissociation constant KD
Sequence of GDP-bound KRAS wild-type protein (P01116 1-188 isoform P01116-2): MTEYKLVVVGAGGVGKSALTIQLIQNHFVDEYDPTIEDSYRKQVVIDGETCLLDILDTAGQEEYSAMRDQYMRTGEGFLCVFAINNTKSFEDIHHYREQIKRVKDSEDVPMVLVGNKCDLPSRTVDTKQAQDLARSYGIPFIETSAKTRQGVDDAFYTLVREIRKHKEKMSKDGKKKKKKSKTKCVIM
How it was run: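 Captured GDP-RAS (~100–300 RU) was exposed to increasing compound concentrations, 75 s per step, in running buffer with 10 µM GDP, 10 mM MgCl2 and 4% DMSO at pH 7.4.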

[4] = test system: human lung cancer strain NCI-H441; format: cell-based
How it was run: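 Readout: […] after the ATP-based reagent. Compound: serial dilutions in dimethyl sulfoxide.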

[5] = ratio of the KD value with respect to GDP-bound NRAS wild-type protein to the KD value with respect to KRAS
[6] = ratio of the KD value with respect to HRAS wild-type protein to the KD value with respect to KRAS
[7] = Single Cycle Kinetics, 1:1 binding model
[8] = ratio of KD for GDP-bound NRAS wild-type protein to KD for KRAS
[9] = ratio of KD for HRAS wild-type protein to KD for KRAS
[10] = ratio of KD value for GDP-bound NRAS wild-type protein to KD value for KRAS (SPR)
[11] = ratio of KD value for HRAS wild-type protein to KD value for KRAS (SPR)

| Structure (SMILES) | NRAS /KRAS [1, 5] | HRAS /KRAS [2, 6] | Kd [3, 7] [nM] | IC50 [4] [nM] | NRAS /KRAS [1, 8] | HRAS /KRAS [2, 9] | Kd ([3]; 1:1 binding model) [nM] | NRAS /KRAS [1, 10] | HRAS /KRAS [2, 11] | Kd ([3]; Single Cycle Kinetics) [nM] |
| --- | --- | --- | --- | --- | --- | --- | --- | --- | --- | --- |
| CCC[C@H]1C(=O)N[C@@H]([C@@H](C)CC)C(=O)N(C)CC(=O)N(C)[C@H]2C/C=C\CCN(C2=O)[C@@H](Cc2ccc(C)cc2)C(=O)N(C)CC(=O)N[C@@H](CCc2ccc(C(F)(F)F)c(Cl)c2)C(=O)N2C[C@H](C)C[C@H]2C(=O)NC2(CC(C)(C)C2)C(=O)N(C)[C@@H](C2CCCC2)C(=O)N(C)[C@H](C(=O)N(C)C)CC(=O)N1C [PP2210] | A (a compound having 10 or more and less than 20 is denoted as A) | B (a compound having 3 or more and less than 10 is denoted as B) | 0.13 | 6.2 |  |  |  |  |  |  |
| CCO[C@@H]1C[C@H]2C(=O)NC3(CCC3)C(=O)N(C)[C@@H](C(CC)CC)C(=O)N(C)[C@H](C(=O)N(C)C)CC(=O)N(C)[C@H]3CCCC/C=C/c4ccc(cc4)C[C@@H](C(=O)N(C)CC(=O)N[C@@H](CCc4ccc(Cl)c(Cl)c4)C(=O)N2C1)N1CC/C=C\C[C@@H](C1=O)N(C)C(=O)CN(C1CC1)C(=O)[C@H]([C@@H](C)CC)NC3=O [PP2605] |  |  |  | 8.7 | AA (a compound having 20 or more is denoted as AA) | A (a compound having 10 or more and less than 20 is denoted as A) | 0.34 |  |  |  |
| CCC[C@@H]1C[C@H]2C(=O)NC3(CC(C)(C)C3)C(=O)N(C)[C@@H](C3CCCC3)C(=O)N(C)[C@H](C(=O)N(C)C)CC(=O)N(C)[C@@H](CCC)C(=O)N[C@@H]([C@@H](C)CC)C(=O)N(C)CC(=O)N(C)[C@H]3C/C=C\CCN(C3=O)[C@@H](Cc3ccc(C)cc3)C(=O)N(C)CC(=O)N[C@@H](CCc3ccc(C(F)(F)F)c(Cl)c3)C(=O)N2C1 [PP2214] | A (a compound having 10 or more and less than 20 is denoted as A) | A (a compound having 10 or more and less than 20 is denoted as A) | 0.3 | 29.6 |  |  |  |  |  |  |
| CCO[C@@H]1C[C@H]2C(=O)NC3(CCC3)C(=O)N(C)[C@@H](C3CCCC3)C(=O)N(C)[C@H](C(=O)N3CCOCC3)CC(=O)N(C)[C@@H](CC3CCCCC3)C(=O)N[C@@H]([C@@H](C)CC)C(=O)N(C)CC(=O)N(C)[C@H]3CCCCCN(C3=O)[C@@H](Cc3ccc(C(F)(F)F)cc3)C(=O)N(C)CC(=O)N[C@@H](CCc3cc(F)c(C(F)(F)F)c(F)c3)C(=O)N2C1 [PP0686] | B (a compound having 3 or more and less than 10 is denoted as B) | B (a compound having 3 or more and less than 10 is denoted as B) | 1 | 65.7 |  |  |  |  |  |  |
| CCC(CC)[C@H]1C(=O)N(C)[C@H](C(=O)N(C)C)CC(=O)N(C)[C@@H](COC)C(=O)N[C@@H]([C@@H](C)CC)C(=O)N(C)CC(=O)N(C)[C@H]2C/C=C\CCN(C2=O)[C@@H](Cc2ccc(C)cc2)C(=O)N(C)CC(=O)N[C@@H](CCc2cc(F)c(C(F)(F)F)c(F)c2)C(=O)N2CCCC[C@H]2C(=O)NC2(CC(C)(C)C2)C(=O)N1C [PP2922] |  |  |  | 55.4 | AA (a compound having 20 or more is denoted as AA) | A (a compound having 10 or more and less than 20 is denoted as A) | 1.1 |  |  |  |
| CC[C@H](C)[C@@H]1NC(=O)[C@H](CC(C)C)N(C)C(=O)C[C@@H](C(=O)N(C)C)N(C)C(=O)[C@H](C2CCCC2)N(C)C(=O)C2(CCC2)NC(=O)[C@@H]2C[C@H](C)CN2C(=O)[C@H](CCc2ccc(C(F)(F)F)c(OC)c2)NC(=O)CN(C)C(=O)[C@H](Cc2ccc(C)cc2)N2CC/C=C\C[C@@H](C2=O)N(C)C(=O)CN(C)C1=O [PP1865] |  |  | 0.083 | 36 |  |  |  | A (a compound having 10 or more and less than 20 is denoted as A) | B (a compound having 3 or more and less than 10 is denoted as B) |  |
| CCC[C@H]1C(=O)N[C@@H](C2CCCCC2)C(=O)N(C)CC(=O)N(C)[C@H]2C/C=C\CCN(C2=O)[C@@H](Cc2ccc(C)cc2)C(=O)N(C)CC(=O)N[C@@H](CCc2ccc(C(F)(F)F)c(Cl)c2)C(=O)N2C[C@H](OCC)C[C@H]2C(=O)NC2(CC(C)(C)C2)C(=O)N(C)[C@@H](CC(C)(C)C)C(=O)N(C)[C@H](C(=O)N(C)C)CC(=O)N1C [PP3018] |  |  |  | 19.1 | A (a compound having 10 or more and less than 20 is denoted as A) | B (a compound having 3 or more and less than 10 is denoted as B) | 0.32 |  |  |  |
| C=CCCC[C@H]1C(=O)N[C@@H]([C@@H](C)CC)C(=O)N(C)CC(=O)N(C)[C@H]2CCCCCN(C2=O)[C@@H](Cc2ccc(C(F)(F)F)cc2)C(=O)N(C)CC(=O)N[C@@H](CCc2cc(F)c(C(F)(F)F)c(F)c2)C(=O)N2C[C@H](OCC)C[C@H]2C(=O)N[C@](C)(CC=C)C(=O)N(C)[C@@H](C2CCCC2)C(=O)N(C)[C@H](C(=O)N2CCOCC2)CC(=O)N1C [PP0880] |  |  |  | 160 | B (a compound having 3 or more and less than 10 is denoted as B) | B (a compound having 3 or more and less than 10 is denoted as B) |  |  |  | 4.5 |
| CC[C@H](C)[C@@H]1NC(=O)[C@H](Cc2ccccc2)N(C)C(=O)C[C@@H](C(=O)N2CCOCC2)N(C)C(=O)[C@H](C2CCCC2)N(C)C(=O)C2(CCCC2)NC(=O)[C@@H]2CCCN2C(=O)[C@H](CCc2ccc(C(F)(F)F)c(Cl)c2)NC(=O)CN(C)C(=O)[C@H](Cc2ccc(F)cc2)N2CCCCC[C@@H](C2=O)N(C)C(=O)CN(C)C1=O [PP0961] |  |  |  | 53.6 | B (a compound having 3 or more and less than 10 is denoted as B) | B (a compound having 3 or more and less than 10 is denoted as B) |  |  |  | 0.62 |
| CCO[C@@H]1C[C@H]2C(=O)NC3(CCC3)C(=O)N(C)[C@@H](C3CCCC3)C(=O)N(C)[C@H](C(=O)N(C)C)CC(=O)N(C)[C@@H](CC)C(=O)N[C@@H]([C@@H](C)CC)C(=O)N(C)CC(=O)N(C)[C@H]3CCCCCN(C3=O)[C@@H](Cc3ccc(F)cc3Cl)C(=O)N(C)CC(=O)N[C@@H](CCc3cc(F)c(C(F)(F)F)c(F)c3)C(=O)N2C1 [PP0908] |  |  |  | 38.5 | B (a compound having 3 or more and less than 10 is denoted as B) | B (a compound having 3 or more and less than 10 is denoted as B) |  |  |  | 0.19 |
| CCCN1C(=O)CN(C)C(=O)[C@@H]2CCN2C(=O)[C@H]([C@@H](C)CC)NC(=O)[C@H](CC(C)C)N(C)C(=O)C[C@@H](C(=O)N2CCOCC2)N(C)C(=O)[C@H](C2CCCC2)N(C)C(=O)C2(CCCC2)NC(=O)[C@@H]2COCCN2C(=O)[C@H](CCc2ccc(C(F)(F)F)c(Cl)c2)NC(=O)CN(C)C(=O)[C@@H]1Cc1ccc(C(F)(F)F)cc1 [PP0313] ([NMeL]I[Aze][Sar][NPrPhe(4-CF3)][Sar][hPhe(3-Cl-4-CF3)][Morpholine(3S-CO)][Ac5c][NMeGly(cPent)][NMeD]-Morpholide; lactam N-11) |  |  |  | 56.6 | B (a compound having 3 or more and less than 10 is denoted as B) | C (A compound having a KD ratio of 0.1 or more and less than 3 is denoted as C) | 2.2 |  |  |  |
| CCO[C@@H]1C[C@H]2C(=O)NC3(CC(C)(C)C3)C(=O)N(C)[C@@H](C3CCCC3)C(=O)N(C)[C@H](C(=O)N(C)C)CC(=O)N(C)[C@@H]([C@@H](C)OC)C(=O)N[C@@H]([C@@H](C)CC)C(=O)N3CCC[C@H]3C(=O)N(C)[C@H]3C/C=C\CCN(C3=O)[C@@H](Cc3ccc(C)cc3)C(=O)N(C)CC(=O)N[C@@H](CCc3ccc(C(F)(F)F)c(OC)c3)C(=O)N2C1 [PP3213] |  |  |  | 61.4 | A (a compound having 10 or more and less than 20 is denoted as A) | A (a compound having 10 or more and less than 20 is denoted as A) | 0.6 |  |  |  |
| CCO[C@@H]1C[C@H]2C(=O)NC3(CCC3)C(=O)N(C)[C@@H](C3CCCC3)C(=O)N(C)[C@H](C(=O)N3CCOCC3)CC(=O)N(C)[C@@H](CC(C)C)C(=O)N[C@@H](C3CC(F)(F)C3)C(=O)N(C)CC(=O)N(C)[C@H]3CCCCCN(C3=O)[C@@H](Cc3ccc(C(F)(F)F)cc3)C(=O)N(C)CC(=O)N[C@@H](CCc3cc(F)c(C(F)(F)F)c(F)c3)C(=O)N2C1 [PP0816] |  |  |  | 92.5 | A (a compound having 10 or more and less than 20 is denoted as A) | B (a compound having 3 or more and less than 10 is denoted as B) |  |  |  | 0.5 |
| CCO[C@@H]1C[C@H]2C(=O)NC3(CC(C)(C)C3)C(=O)N(C)[C@@H](C3CCCC3)C(=O)N(C)[C@H](C(=O)N(C)CC)CC(=O)N(C)[C@@H](CC(C)C)C(=O)N[C@@H]([C@@H](C)CC)C(=O)N(C)CC(=O)N(C)[C@H]3C/C=C\CCN(C3=O)[C@@H](Cc3ccc(C(F)F)cc3)C(=O)N(C)CC(=O)N[C@@H](CCc3cc(F)c4c(c3)CCC4)C(=O)N2C1 [PP3149] |  |  |  | 56.4 | A (a compound having 10 or more and less than 20 is denoted as A) | A (a compound having 10 or more and less than 20 is denoted as A) | 0.84 |  |  |  |
| CCC[C@H]1C(=O)N[C@@H]([C@@H](C)CC)C(=O)N(C)CC(=O)N(C)[C@H]2C/C=C\CCN(C2=O)[C@@H](Cc2ccc(C)cc2)C(=O)N(C)CC(=O)N[C@@H](CCc2cc(F)c(C(F)(F)F)c(F)c2)C(=O)N2CCC[C@H]2C(=O)N(C)C2(CCC2)C(=O)N(C)[C@@H](C2CCCC2)C(=O)N(C)[C@H](C(=O)N(C)C)CC(=O)N1C [PP1794] |  |  | 0.06 | 8.7 |  |  |  | A (a compound having 10 or more and less than 20 is denoted as A) | B (a compound having 3 or more and less than 10 is denoted as B) |  |
